The conditions of data set [1]: 0 °C (SOPC Tc 6 °C, gel state), CLSM observation; cited from earlier work.
A further data set concerns dermal fibroblasts. The settings on record: cited from earlier work. The source says:
Hoffmeister Effect of solute[12] is one of the known phenomena to control the hydration level of self-assembled amphiphiles. Chaotropic solutes (water structure breakers) such as sodium thiocyanate (NaSCN) and 1,3-butanediol (1,3-BG) make the membrane curvature positive. On the other hand, kosmotropic solutes (water structure maker ...

A short description of data set [2]: Leakage of internalized FITC-R8 and rhodamine from GUV. The settings on record: EPC GUV, L/P = 1000, 10 min, 37 °C, different osmotic pressures, with or without FITC-R8 in outer medium, fluorescence Ex 555/Em 575 nm, n = 5.
Method: GUVs were prepared by the freeze-melting and natural swelling method[23]. Lipids dissolved in chloroform were placed into the vials, and then the solvent was evaporated. After being dried in vacuo for 16 h in the dark, lipid films were hydrated with 0.01 mg/mL of Rho/3 M KCl solution to give 20 mM lipid concentration. […] The suspension was vortexed for 1 min. This step (from freezing to vortexing) was repeated six times. It was transferred to a dialysis membrane (UC-8-32-25; Viskase Co. Ltd., Chicago, USA) and dialyzed against 20% PBS for at least two days at room temperature and, the dialysis solution was daily replaced by a new one. In this study, 20% PBS is defined as ‘isotonic solution’ and PBS solution at concentrations less than 20% as ‘hypotonic solution’ and at higher than 20% as ‘hypertonic solution’.
Penetration assay of CPP into GUV was conducted in the same manner previously reported[23]. […] The ratio of penetrated FITC-R8 and Rho leakage ratio was calculated using the following equations:1 P=A/U×100 2 L=IL-Rho/IL-Rho+INL-Rho×100
In Eq. (1), P is the penetrated ratio of FITC-R8 ratio, A is the amount of penetrated FITC-R8 into GUV calculated using the standard curve, and U is the amount of FITC-R8 used in this experiment. In Eq. (2), L is the leaked Rho ratio, and IL-Rho and INL-Rho are the fluorescence intensities of leaked and non-leaked Rho.
Details of data set [3]: method as in doi:10.1246/cl.2012.1078. The settings on record: under the tested conditions, regardless of osmotic pressure change; cited from earlier work.

On to `N=C(N)NCCC[C@H](NC(=O)[C@H](CCCNC(=N)N)NC(=O)[C@H](CCCNC(=N)N)NC(=O)[C@H](CCCNC(=N)N)NC(=O)[C@H](CCCNC(=N)N)NC(=O)[C@H](CCCNC(=N)N)NC(=O)[C@H](CCCNC(=N)N)NC(=O)[C@H](CCCNC(=N)N)NC(=O)CCCNC(=S)Nc1ccc2c(c1)C(=O)OC21c2ccc(O)cc2Oc2cc(O)ccc21)C(=O)O` [FITC-R8], for which, in data set [1], the “cytolysis to SOPC GUV” value is listed as “no cytolysis”. The “cell viability with chaotropic solutes (NaSCN, 1,3-BG)” value in the data set on dermal fibroblasts is “without interfering with cell viability”.
In the case of `CCN(CC)c1ccc2c(-c3ccccc3C(=O)O)c3ccc(=[N+](CC)CC)cc-3oc2c1` [rhodamine, Rhodamine B], the “leakage of rhodamine pre-encapsulated in the GUV” value in data set [2] is “very low and consistent”.
In the case of fluorescein isothiocyanate [FITC], the “permeation through the membrane into the cytosol” value in data set [3] is “could not permeate through the membrane”.
